“Also recorded” adds a separate entry of the source.
Columns and labels:
rats [1] = test: Sucrose preference testing for depression/anhedonia symptoms; assay type: in vivo, rat; conditions: 2% sucrose vs. plain water, chronic THC 10 days twice daily i.p., L-Theanine 10 mg/kg, FIG. 2
Procedure: (§1) Four groups of ten rats were studied. The first group of rats was given twice daily intra-peritoneal doses of THC. The dosage regime was as follows
(§2) Immediately preceding each dose of THC, each rat was dosed with 10 mg/kg L-Theanine, administered intra-peritoneally.
(§3) The second group of rats was given the same doses of THC and no L-Theanine.
(§4) The third group of rats was given twice daily doses of L-Theanine but no THC.
(§5) The fourth group of rats was given neither THC nor L-Theanine.
(§6) All groups of rats were fed, watered and otherwise housed identically. At the end of the 10 day period, the rats were subject to a serious of tests.
Rats were water-restricted for 12 hrs prior to being given a 2-bottle choice test between a solution containing 2% sucrose vs. plain water. The amounts consumed from each bottle were measured over 24 hr for 4 days. A sucrose preference index was calculated for each rat and averaged across groups by taking the percentage of the volume of sucrose intake over the total volume of fluid intake over […].

rats [2] = test: Novel object memory test (Novel Object Recognition); assay type: in vivo, rat; conditions: 60 min delay, chronic THC 10 days twice daily i.p., L-Theanine 10 mg/kg, FIG. 3
Procedure: as §1, §2, §3, §4, §5, §6
The test sessions consisted of two 3-min trials. During the first trial (T1 acquisition trial), each rat was placed in the center of an arena containing two identical objects placed in the far corners 15 cm from the side wall. […] Times spent in exploration were videotaped with a video-tracking system (ANY-maze; Stoelting) and analyzed by an experimenter blind to the treatment conditions. Exploration times were recorded and used to calculate object recognition index [time spent with novel object/total time exploring both objects]

rats [3] = test: Paired-pulse (prepulse) inhibition test for cognitive filtering deficits; assay type: in vivo, rat; conditions: L-Theanine 10 mg/kg; for prepulse inhibition / sensory filtering: both 30 and 100 msec between pre-pulse and test pulse, 10 days twice daily i.p. THC 2.5-10 mg/kg, relative to vehicle control rats, FIG. 1
Procedure: as §1, §2, §3, §4, §5, §6
Rats were acclimatized to the startle chambers (Med Associates) for 5 min over 3 days. On the last day of acclimation, rats were tested in an input/output (I/O) function consisting of 12 increasing startle pulses (from 65 to 120 dB, 5 dB increments) to determine the appropriate gain setting for each individual rat. The testing procedure consisted of the following phases: the acclimation phase, a habituation phase (Block 1), and PPI measurement (Block 2). During acclimation, rats were exposed to the chambers and white background noise (68 dB) for 5 min. During Block 1, 10 pulse alone trials (110 dB white noise, 20 ms duration) were delivered at 15-20 s inter-trial intervals. Block 2 consisted of […] presented 10 times in a pseudo-randomized order at 15-20 s intervals: 10 pulse-alone trials, and 10 of each of the three different prepulse-pulse trial types (72, 76, 80) with interstimulus intervals of 30 and 100 ms. Pulse-alone trials consisted of a startle stimulus-only presentation, whereas prepulse-pulse trials consisted of the presentation of a weaker non-startling prepulse (white noise, 20 ms duration) before the startling stimulus. PPI was calculated for each animal and each trial condition as PPI (%)=(1-average startle amplitude to pulse with prepulse/average startle amplitude to pulse only)×100.

[4] = system: glycogen-synthase-kinase-3B; test: Western Blot of GSK-3β protein expression; assay type: in vivo, rat; conditions: rats, chronic THC exposure, L-Theanine 10 mg/kg
Procedure: (§7) FIG. 7. […] These molecular signaling effects are prevented by co-administration with L-Theanine (10 mg/kg), as measured in a Western Blot procedure.
as §1, §2, §3, §4, §5, §6

[5] = system: Akt (protein kinase B) threanine308; test: Protein expression of Akt308 in prefrontal cortex; assay type: in vivo; conditions: prefrontal cortex of rat brain; chronic THC, L-Theanine 10 mg/kg; FIG. 8
Procedure: FIG. 8. […] This effect is prevented by L-Theanine (10 mg/kg) co-administration.
as §1, §2, §3, §4, §5, §6

Akt at serine 473 = test: Protein expression of Akt at serine 473 in prefrontal cortex; assay type: in vivo; conditions: prefrontal cortex of rat brain; chronic THC, L-Theanine 10 mg/kg; FIG. 8
[6] = system: single dopamine neurons in the ventral tegmental area; test: In vivo single-unit electrophysiology recordings in the VTA; parameters: species or system rat; conditions: rats; chronic THC exposure, L-Theanine 10 mg/kg; FIG. 4
Procedure: as §1, §2, §3, §4, §5, §6
(§8) Extracellular single-unit electrophysiological recordings were performed in vivo in adult (>PND 75) pretreated rats during adolescence. The recordings were taken from either putative glutamatergic (GLUT) PFC neurons or dopaminergic (DA) VTA neurons. Rats were anesthetized with urethane (1.4 g/kg, i.p., Sigma-Aldrich) and placed in a stereotaxic frame with body temperature maintained at 37° C. […] Extracellular signals were amplified (×5000) using a MultiClamp 700B amplifier (Molecular Devices), digitized at 25 kHz and recorded on the computer using a Digidata 1440 A and pClamp software (Molecular Devices). […]

[7] = system: glycogen-synthase-kinase-3A; test: Western Blot of GSK-3α protein expression; assay type: in vivo, rat; conditions: rats, chronic THC exposure, L-Theanine 10 mg/kg
Procedure: as §7, §1, §2, §3, §4, §5, §6

[8] = system: gamma-band activity in the rat prefrontal cortex; test: Local field potential recordings in prefrontal cortex (normalized power testing); assay type: in vivo; conditions: chronic THC exposure, L-Theanine 10 mg/kg, 0-100 Hz range
Procedure: as §1, §2, §3, §4, §5, §6, §8

[9] = system: single neurons of the prefrontal cortex (PFC); test: In vivo single-unit electrophysiology recordings in the PFC (burst testing); parameters: species or system rat; conditions: rats; chronic THC exposure, L-Theanine 10 mg/kg; FIG. 5
Procedure: as §1, §2, §3, §4, §5, §6
as §8, with “neurons.” for “neurons. Rats were anesthetized with urethane (1.4 g/kg, i.p., Sigma-Aldrich) and placed in a stereotaxic frame with body temperature maintained at 37° C.”
Putative mPFC pyramidal cells were identified based on established criteria85: (1) firing frequency <10 Hz, (2) waveform shape, and (3) action potential duration >2.5 ms. […] After an individual putative pyramidal neuron was isolated, its spontaneous activity was recorded for 5 min. […]

SMILES	sucrose preference (anhedonic, depression-like effects) (rats [1])	object recognition (object memory) (rats [2])	prepulse inhibition / sensory filtering (rats [3])	protein expression levels of GSK-3β ([4]; FIG. 7)	protein expression levels of GSK-3β ([4]; FIG. 7, listed as THC-alone)	protein expression levels of Akt308 [5]	effect on Akt at serine 473 (Akt at serine 473)	activity rates of single dopamine neurons in the ventral tegmental area [6]	protein expression levels of GSK-3α ([7]; FIG. 7)	protein expression levels of GSK-3α ([7]; FIG. 7, listed as THC-alone)	gamma-band activity (local field potentials, normalized power) ([8]; FIG. 6)	gamma-band activity (local field potentials, normalized power) ([8]; FIG. 6, listed as THC only)	bursting pattern activity of single neurons of the prefrontal cortex [9]	sensorimotor filtering (paired-pulse-inhibition) (rats [3]; 30 msec stimulus intervals, 72 and 84 decibel stimulus intensities, FIG. 1A)	sensorimotor filtering (paired-pulse-inhibition) (rats [3]; 100 msec stimulus intervals, 72, 76 and 80 decibel stimulus intensities, FIG. 1B)
CCNC(=O)CC[C@H](N)C(=O)O [L-Theanine]	no apparent effects on sucrose preference	no apparent effects on object recognition	no apparent effects on sensory filtering												
CCCCCc1cc(O)c2c(c1)OC(C)(C)[C@@H]1CCC(C)=C[C@@H]21 [THC, Δ-9-tetrahydrocannabinol]	anhedonic (depression-like) effects; also recorded: strong sucrose preference reduction	significant object memory impairment; also recorded: strong reductions in object recognition	strong deficits in the prepulse inhibition	significant loss in the protein expression levels	significant decrease	significant downregulation in protein expression levels of Akt308	no effect	hyperactive activity rates	significant loss in the protein expression levels	significant decrease	significant decrease in gamma-band activity states	generally decreased activity	hyperactive ‘bursting’ pattern activity state; also recorded: neuronal hyperactivity	disruption of sensorimotor filtering	disruption of sensorimotor filtering
